The values below come from patent publication US11325938B2, “CD73 inhibitors” (ORIC Pharmaceuticals, Inc., priority 2018, dated 2022).

In this assay the target is CD73 (Homo sapiens (Human), UniProt P21589). Put plainly: Biochemical assay: inhibition of CD73 activity (AMP hydrolysis, Malachite Green readout). The following applies: CD73 0.3208 nM, AMP 15 μM, 25 mM Tris-HCl pH 7.4, RT, absorbance 620 nm. On the procedure:
Example A1: Biochemical Assay
Assay Reaction Conditions
• Assay Volume: 70 μl • Reaction Volume: 50 μl • CD73: 0.3208 nM • AMP: 15 μM • Assay Buffer: 25 mM Tris-HCL, pH 7.4, 0.01% Brij-35, 0.01% BSA, 5 mM MgCl2 Assay Procedure:
Made dose titration of testing compounds in assay buffer, 10 points ½ log titrations in duplicates starting at 100 μM.
Added 25 μl of CD73 to each well for a final concentration of 320 pM.
Incubated at RT for 15 min.
Added 25 μl of AMP to each well for a final concentration of 15 μM.
Incubated at RT for 10 min.
Added 10 μl of Malachite Green Reagent A, incubate at RT for 10 min.
Added 10 of Malachite Green Reagent B, incubate at RT for 45 min.
Read the Absorbance on Envision plate reader using excitation filter: Cy5 […].
The ability of the compounds disclosed herein to inhibit CD73 activity was quantified and the respective IC50 values were determined. Table 2 provides the biochemical IC50 values of compounds disclosed herein.

Sequence of CD73 (P21589 27-574): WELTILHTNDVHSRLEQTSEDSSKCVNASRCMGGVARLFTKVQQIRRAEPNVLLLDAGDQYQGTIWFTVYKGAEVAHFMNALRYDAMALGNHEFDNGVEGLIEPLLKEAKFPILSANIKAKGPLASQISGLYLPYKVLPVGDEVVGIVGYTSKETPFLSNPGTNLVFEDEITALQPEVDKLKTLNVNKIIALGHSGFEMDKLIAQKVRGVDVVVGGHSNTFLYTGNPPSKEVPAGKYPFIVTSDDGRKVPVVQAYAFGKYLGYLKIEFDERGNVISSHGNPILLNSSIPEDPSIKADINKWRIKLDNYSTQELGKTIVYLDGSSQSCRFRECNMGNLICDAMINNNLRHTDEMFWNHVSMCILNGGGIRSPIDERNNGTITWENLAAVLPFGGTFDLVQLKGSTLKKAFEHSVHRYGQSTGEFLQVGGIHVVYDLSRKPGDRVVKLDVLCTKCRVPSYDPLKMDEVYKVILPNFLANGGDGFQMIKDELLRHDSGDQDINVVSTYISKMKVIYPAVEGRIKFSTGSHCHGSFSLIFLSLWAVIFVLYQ

Consider `CNc1nc(Cl)nc2c1cnn2[C@@H]1O[C@H](COC(CO)P(=O)(O)O)[C@@H](O)[C@H]1O` (stereo partly drawn) [Example 29, (1-(((2R,3S,4R,5R)-5-(6-chloro-4-(methylamino)-1H-pyrazolo[3,4-d]pyrimidin-1-yl)-3,4-dihydroxytetrahydrofuran-2-yl)methoxy)-2-hydroxyethyl)phosphonic acid], for which the IC50 is at most 100 nM.

As to `C[C@@](CO)(OC[C@H]1O[C@@H](n2nnc3c(NC4CCCC4)cc(Cl)nc32)[C@H](O)[C@@H]1O)P(=O)(O)O` [Example 139, ((R)-2-(((2R,3S,4R,5R)-5-(5-chloro-7-(cyclopentylamino)-3H-[1,2,3]triazolo[4,5-b]pyridin-3-yl)-3,4-dihydroxytetrahydrofuran-2-yl)methoxy)-1-hydroxypropan-2-yl)phosphonic acid], the IC50 is at most 100 nM.

For the compound `O=P(O)(O)C(CO)(COCCO)OC[C@H]1O[C@@H](n2ncc3c(NC4CCCC4)nc(Cl)nc32)[C@H](O)[C@@H]1O` (mixture of isomers) [Example 172, rac-(2-(((2R,3S,4R,5R)-5-(6-chloro-4-(cyclopentylamino)-1H-pyrazolo[3,4-d]pyrimidin-1-yl)-3,4-dihydroxytetrahydrofuran-2-yl)methoxy)-1-hydroxy-3-(2-hydroxyethoxy)propan-2-yl)phosphonic acid], the IC50 is at most 100 nM.

`CC(OC[C@H]1O[C@@H](n2ncc3c(NC4CCCC4)nc(Cl)nc32)[C@H](O)[C@@H]1O)P(=O)(O)O` (stereo partly drawn) [Example 5, (1-(((2R,3S,4R,5R)-5-(6-Chloro-4-(cyclopentylamino)-1H-pyrazolo[3,4-d]pyrimidin-1-yl)-3,4-dihydroxytetrahydrofuran-2-yl)methoxy)ethyl)phosphonic acid] returned an IC50 of at most 100 nM.

Compound `O=P(O)(O)C(CO)OC[C@H]1O[C@@H](n2ncc3c(NCC4CC4)nc(Cl)nc32)[C@H](O)[C@@H]1O` (stereo partly drawn) [Example 30, (1-(((2R,3S,4R,5R)-5-(6-chloro-4-((cyclopropylmethyl)amino)-1H-pyrazolo[3,4-d]pyrimidin-1-yl)-3,4-dihydroxytetrahydrofuran-2-yl)methoxy)-2-hydroxyethyl)phosphonic acid] had an IC50 of at most 100 nM.

`O=P(O)(O)COC[C@H]1O[C@@H](n2nnc3c(NCc4cccc(Cl)c4)cc(Cl)nc32)[C@H](O)[C@@H]1O` [Example 22, ((((2R,3S,4R,5R)-5-(5-chloro-7-((3-chlorobenzyl)amino)-3H-[1,2,3]triazolo[4,5-b]pyridin-3-yl)-3,4-dihydroxytetrahydrofuran-2-yl)methoxy)methyl)phosphonic acid] had an IC50 of at most 100 nM.

For `COC[C@@](C)(OC[C@H]1O[C@@H](n2ncc3c(NC4CCCC4)nc(Cl)nc32)[C@H](O)[C@@H]1O)P(=O)(O)O` [Example 65, ((S)-2-(((2R,3S,4R,5R)-5-(6-chloro-4-(cyclopentylamino)-1H-pyrazolo[3,4-d]pyrimidin-1-yl)-3,4-dihydroxytetrahydrofuran-2-yl)methoxy)-1-methoxypropan-2-yl)phosphonic acid], the IC50 is at most 100 nM.

Compound `Nc1nc(Cl)nc2c1cnn2[C@@H]1O[C@H](COC(CO)P(=O)(O)O)[C@@H](O)[C@H]1O` (stereo partly drawn) [Example 59, (1-(((2R,3S,4R,5R)-5-(4-amino-6-chloro-1H-pyrazolo[3,4-d]pyrimidin-1-yl)-3,4-dihydroxytetrahydrofuran-2-yl)methoxy)-2-hydroxyethyl)phosphonic acid] came in with an IC50 of 100 to 1000 nM.

With `COCC(C)(OC[C@H]1O[C@@H](n2ncc3c(NC4CCCC4)nc(CO)nc32)[C@H](O)[C@@H]1O)P(=O)(O)O` (stereo partly drawn) [Example 90, (2-(((2R,3S,4R,5R)-5-(4-(Cyclopentylamino)-6-(hydroxymethyl)-1H-pyrazolo[3,4-d]pyrimidin-1-yl)-3,4-dihydroxytetrahydrofuran-2-yl)methoxy)-1-methoxypropan-2-yl)phosphonic acid], the IC50 is at most 100 nM.

As for `O=P(O)(O)[C@@](CO)(COCc1ccccc1)OC[C@H]1O[C@@H](n2ncc3c(NC4CCCC4)nc(Cl)nc32)[C@H](O)[C@@H]1O` (racemic) [Example 180, rac-((R)-1-(benzyloxy)-2-(((2S,3R,4S,5S)-5-(6-chloro-4-(cyclopentyalmino)-1H-pyrazolo[3,4-d]pyrimidin-1-yl)-3,4-dihydroxytetrahydrofuran-2-yl)methoxy)-3-hydroxypropan-2-yl)phosphonic acid], the concentration for half-maximal inhibition (IC50) is at most 100 nM.

On to `C[C@@H](O)COc1nc(NC2CCCC2)c2cnn([C@@H]3O[C@H](CO[C@@](C)(CO)P(=O)(O)O)[C@@H](O)[C@H]3O)c2n1` (racemic) [Example 165, rac-((R)-2-(((2R,3S,4R,5R)-5-(4-(cyclopentylamino)-6-((R)-2-hydroxypropoxy)-1H-pyrazolo[3,4-d]pyrimidin-1-yl)-3,4-dihydroxytetrahydrofuran-2-yl)methoxy)-1-hydroxypropan-2-yl)phosphonic acid], for which the IC50 is at most 100 nM.

With `C[C@@](COCCO)(OC[C@H]1O[C@@H](n2ncc3c(NC4CCCC4)nc(Cl)nc32)[C@H](O)[C@@H]1O)P(=O)(O)O` [Example 124, ((R)-2-(((2R,3S,4R,5R)-5-(6-chloro-4-(cyclopentylamino)-1H-pyrazolo[3,4-d]pyrimidin-1-yl)-3,4-dihydroxytetrahydrofuran-2-yl)methoxy)-1-(2-hydroxyethoxy)propan-2-yl)phosphonic acid], the IC50 is at most 100 nM.

As for `O=P(O)(O)COC[C@H]1O[C@@H](n2nnc3c(NCc4ccccc4Cl)cc(Cl)nc32)[C@H](O)[C@@H]1O` [Example 26, ((((2R,3S,4R,5R)-5-(5-chloro-7-((2-chlorobenzyl)amino)-3H-[1,2,3]triazolo[4,5-b]pyridin-3-yl)-3,4-dihydroxytetrahydrofuran-2-yl)methoxy)methyl)phosphonic acid], the IC50 is at most 100 nM.

`CC(CO)(OC[C@H]1O[C@@H](n2ncc3c(NC4CCCC4)nc(CCCO)nc32)[C@H](O)[C@@H]1O)P(=O)(O)O` (stereo partly drawn) [Example 88, 2-(((2R,3S,4R,5R)-5-(4-(Cyclopentylamino)-6-(3-hydroxypropyl)-1H-pyrazolo[3,4-d]pyrimidin-1-yl)-3,4-dihydroxytetrahydrofuran-2-yl)methoxy)-1-hydroxypropan-2-ylphosphonic acid]: the IC50 is at most 100 nM.

Regarding `O=C(O)COCC(CO)(OC[C@H]1O[C@@H](n2ncc3c(NC4CCCC4)nc(Cl)nc32)[C@H](O)[C@@H]1O)P(=O)(O)O` (mixture of isomers) [Example 198, rac-2-(2-(((2R,3S,4R,5R)-5-(6-chloro-4-(cyclopentylamino)-1H-pyrazolo[3,4-d]pyrimidin-1-yl)-3,4-dihydroxytetrahydrofuran-2-yl)methoxy)-3-hydroxy-2-phosphonopropoxy)acetic acid], the IC50 was at most 100 nM.

The compound `CC(CO)(OC[C@H]1O[C@@H](n2ncc3c(N[C@H]4CCC45CCC5)nc(Cl)nc32)[C@H](O)[C@@H]1O)P(=O)(O)O` (stereo partly drawn) [Example 136, (2-(((2R,3S,4R,5R)-5-(6-chloro-4-(((S)-spiro[3.3]heptan-1-yl)amino)-1H-pyrazolo[3,4-d]pyrimidin-1-yl)-3,4-dihydroxytetrahydrofuran-2-yl)methoxy)-1-hydroxypropan-2-yl)phosphonic acid] registered a 50% inhibitory concentration (IC50) of at most 100 nM.

In general, IC50 refers to the concentration needed to halve the response being measured. A high value points to weaker potency in that assay.
